Data published in US5156956A, “Transgultaminase” (Ajinomoto Co., Inc., priority 1987, dated 1992).

Experiments:
[1] = biological target: T1, BTG-2 (Streptomyces griseocarneus, UniProt A0ABX7RSJ1); type: biochemical, Streptoverticillium griseocarneum IFO 12776; details: metal ion 1 mM; None = 100; 30 min
T1 construct: Ca2+-independent; made as pre-pro-protein
Protocol: (§1) Measurement of the activity of BTGase is carried out by performing a reaction using benzyloxycarbonyl-L-glutaminyl glycine and hydroxylamine as substrates in the absence of Ca^2+, forming an iron complex with the resulting hydroxamic acid in the presence of trichloroacetic acid, measuring absorption at 525 nm and determining the amount of hydroxamic acid by a calibration curve to calculate the activity. The BTGase activity is measured by the method described below, unless otherwise indicated.
(§2) To 0.05 ml of an enzyme solution is added 0.5 ml of Reagent A and they are mixed with each other. After reacting at 37° C. for 30 minutes, Reagent B is added thereto to discontinue the reaction and form an Fe complex. Thereafter, absorbance is measured at 525 nm. […] Separately, a calibration curve is prepared using L-glutamic acid γ-monohydroxamio acid instead of the enzyme solution, and the amount of hydroxamic acid produced is determined by the difference in absorbance described above. An enzyme activity which produces 1 μmol of hydroxamic acid per 1 minute is defined as 1 unit.

[2] = system: all BTGases; assay: Influence of metal ions, statement on all BTGases; type: biochemical, Streptoverticillium; details: metal ion 1 mM
From the text: In all BTGases, the activity is inhibited by Cu^2+ and Zn^2+.

[3] = biological target: T2, BTG-3 (Streptomyces cinnamoneus, UniProt Q8GR90); assay: Influence of metal ions on activity; type: biochemical; details: metal ion 1 mM; None = 100; 30 min
T2 construct: Ca2+-independent; made as pre-pro-protein
T2 sequence (Q8GR90 86-416): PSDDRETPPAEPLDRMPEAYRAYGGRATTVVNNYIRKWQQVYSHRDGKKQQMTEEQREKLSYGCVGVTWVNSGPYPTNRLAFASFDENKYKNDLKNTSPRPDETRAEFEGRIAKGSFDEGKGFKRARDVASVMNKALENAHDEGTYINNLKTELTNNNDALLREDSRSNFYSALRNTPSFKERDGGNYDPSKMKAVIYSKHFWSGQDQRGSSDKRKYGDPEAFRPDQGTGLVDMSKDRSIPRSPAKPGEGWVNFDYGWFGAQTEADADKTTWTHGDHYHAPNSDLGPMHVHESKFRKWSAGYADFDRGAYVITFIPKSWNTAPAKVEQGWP
Protocol: as §1, §2

[4] = biological target: T3, BTG-1 (Streptomyces mobaraensis, UniProt P81453); assay: Influence of metal ions on activity; type: biochemical, Streptoverticillium mobaraense IFO 13819; details: metal ion 1 mM; None = 100; 30 min
T3 construct: BTGase is dissolved in the culture solution and can be harvested from the culture filtrate; endogenous in cells; host or cells: Streptoverticillium mobaraense IFO 13819 (natural producer; purified from culture filtrate)
T3 sequence (P81453 77-407): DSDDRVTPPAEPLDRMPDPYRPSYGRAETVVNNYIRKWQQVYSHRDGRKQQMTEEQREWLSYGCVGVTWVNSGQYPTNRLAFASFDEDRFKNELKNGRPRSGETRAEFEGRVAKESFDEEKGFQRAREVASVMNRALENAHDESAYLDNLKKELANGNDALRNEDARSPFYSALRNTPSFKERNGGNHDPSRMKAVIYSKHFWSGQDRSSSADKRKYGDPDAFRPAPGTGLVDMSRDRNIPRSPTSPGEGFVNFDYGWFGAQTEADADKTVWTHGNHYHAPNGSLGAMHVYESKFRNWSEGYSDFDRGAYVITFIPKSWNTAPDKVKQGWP
Protocol: as §1, §2

[5] = biological target: T1, BTG-2; assay: biochemical; set-up: species or system Streptoverticillium griseocarneum IFO 12776
Protocol: as §1, §2

[6] = biological target: T2, BTG-3; assay: biochemical; details: inhibitor 1 mM, 25° C. for 30 minutes, None = 100
Protocol: as §1, §2

[7] = system: all BTGases; details: inhibitor 1 mM, 25° C. for 30 minutes
[8] = biological target: T3, BTG-1; assay: biochemical; set-up: species or system Streptoverticillium mobaraense IFO 13819; details: inhibitor 1 mM, 25° C. for 30 minutes, None = 100
Protocol: as §1, §2

[9] = Optimum pH; type: biochemical; details: 37° C. for 10 minutes
[10] = Temperature stability; type: physicochemical; details: pH 7 for 10 minutes
[11] = pH stability; type: physicochemical; details: treatment at 37° C. for 10 minutes
[12] = Activity of the enzymes without added Ca2+; type: biochemical; details: no CaCl2 added (Table 5)
Protocol: as §1

Molecule: [Cl-].[Cl-].[Zn+2] [ZnCl2]
- BTG-2 (%) activity with metal ion [1]: 24%
- Effect of metal ion on activity of all BTGases (in words) [2]: inhibited
- BTG-3 (%) activity with metal ion [3]: 24%
- BTG-1 (%) activity with metal ion [4]: 15%

Molecule: CCN1C(=O)C=CC1=O [NEM, N-ethylmaleimide]
- inhibition at 1000 µM ([5]; read-out: BTG-2 (%) activity with inhibitor): 5%
- inhibition at 1000 µM ([6]; read-out: BTG-3 (%) activity with inhibitor): 3%
- Effect of inhibitor on activity of all BTGases (in words) [7]: inhibited
- inhibition at 1000 µM ([8]; read-out: BTG-1 (%) activity with inhibitor): 5%

Molecule: O=C(O)c1cc[c]([Hg][Cl])cc1 [PCMB, p-chloromercury benzoic acid]
- BTG-2 (%) activity with inhibitor ([5]; inhibitor 1 mM, 25° C. for 30 minutes, None = 100): 61%
- BTG-3 (%) activity with inhibitor [6]: 63%
- Effect of inhibitor on activity of all BTGases (in words) [7]: inhibited
- BTG-1 (%) activity with inhibitor [8]: 54%

Molecule: [Cl][Cu][Cl] [CuCl2]
- BTG-2 (%) activity with metal ion [1]: 82%
- Effect of metal ion on activity of all BTGases (in words) [2]: inhibited
- BTG-3 (%) activity with metal ion [3]: 86%
- BTG-1 (%) activity with metal ion [4]: 79%

B1: BTG-1: transglutaminase of Streptoverticillium mobaraense IFO 13819 (protein, UniProt P81453 77-407, looked up)
Protein-glutamine …: T3 sequence (P81453 77-407)
- Optimum pH [9]: 6-7
- Temperature stability (%), 40° C. residual rate ([10]; 40° C.): 88%
- Temperature stability (%), 50° C. residual rate ([10]; 50° C.): 74%
- pH Stability (stable pH range) [11]: 5-9
- Activity (%) of the enzyme, metal ion: None [12]: 99%
